{"source": "patent US20210308089A1", "about": "“METHODS OF TREATING AND/OR PREVENTING VIRAL INFECTIONS AND/OR DISEASES CAUSED BY VIRUSES IN A SUBJECT IN NEED THEREOF” (priority 2020, published 2021)", "test_system": "TG, non-HDL-C, LDL-C, HDL-C, Apo B, hs-CRP", "assay": "REDUCE-IT: fasting lipid, lipoprotein and inflammatory markers over time", "assay_type": "in vivo, human", "text": "The key tertiary objectives for this study were to evaluate the effect of AMR101 4 g daily from baseline and percent change form baseline in fasting triglycerides and LDL-C. […]", "key": {"[1]": {"conditions": "Year 1 (as headed in Table 18), 4 g/day"}, "[2]": {"conditions": "Year 1 (as headed in Table 18), vs placebo"}}, "data": [{"smiles": "CC/C=C\\C/C=C\\C/C=C\\C/C=C\\C/C=C\\CCCC(=O)OCC", "note": "[icosapent ethyl, eicosapentaenoic acid ethyl ester]", "values": [{"measurement": "LDL cholesterol median change (increase) from baseline", "setting": "4 g/day", "result": 0.05, "unit": "mmol/L"}, {"measurement": "LDL-C derived median % change from baseline", "setting": "Last Visit, 4 g/day, ITT", "result": 3.1, "unit": "%"}, {"measurement": "LDL-C derived median absolute change from baseline", "setting": "Last Visit, 4 g/day, ITT", "result": 2.0, "unit": "mg/dL"}, {"measurement": "Reduction in hs-CRP observed in patients from this trial", "setting": "REDUCE-IT", "result": 40, "unit": "%"}, {"measurement": "Apo B median", "setting": "[1]", "result": 80.0, "unit": "mg/dL"}, {"measurement": "hs-CRP median", "setting": "[1]", "result": 1.8, "unit": "mg/L"}, {"measurement": "Apo B median between group difference, % change from baseline", "setting": "[2]", "result": "−9.7", "unit": "%"}, {"measurement": "Apo B median between group difference, absolute change from baseline", "setting": "[2]", "result": -8.0, "unit": "mg/dL"}, {"measurement": "hs-CRP median between group difference, absolute change from baseline", "setting": "[2]", "result": -0.9, "unit": "mg/L"}, {"measurement": "Triglycerides: median reduction from baseline greater than in placebo group (Hodges-Lehmann)", "setting": "baseline to one year", "result": 19.7, "unit": "%"}]}]}
